Data reported in patent US5892063A (Hauser, Inc., priority 1997, dated 1999).
Where two headings read alike, the source gives them in different places.

Key:
[1] = SRB growth screen, whole cell line panel; type: cell-based; conditions: for CC50: Homo sapiens, read-out: Log10 LC50, Mean (converted); for GI50: read-out: Log10 GI50, Mean (converted); for IC (TGI): read-out: Log10 TGI, Mean (converted)
Protocol: The screening assay is performed on 96-well microtitre plates. […] Duplicate wells are prepared for all concentrations; "time-zero" and "nodrug" controls are also provided for each test. […] One hundred microliters of SRB solution (0.4% w/v in 1% acetic acid) is added to each microtitre well and incubated for 10 minutes at room temperature.
The response parameters GI50 and LC50 are interpolated values representing the concentrations at which the percentage growth (PG) is +50 and -50 respectively:
GI50 is the concentration for which the PG=+50.
TGI is the concentration for which PG=0.
LC50 is the concentration for which the PG=-50. […] This is interpreted as cytotoxicity.
The data represented in Table I is graphically represented in FIGS. 1a and 1b through FIGS. 9a and 9b. […] The following is an example of how the information in Table I and in the Figures is interpreted.

U251 = experiment: SRB growth screen, CNS cancer U251; conditions: Homo sapiens, U-251, 48 h; for CC50: read-out: Log10 LC50 (converted)
UACC-62 = experiment: SRB growth screen, melanoma UACC-62; conditions: Homo sapiens, UACC-62, 48 h; for CC50: read-out: Log10 LC50 (converted)
KM12 = experiment: SRB growth screen, colon cancer KM12; conditions: Homo sapiens, KM12, 48 h
SF-539 = experiment: SRB growth screen, CNS cancer SF-539; conditions: Homo sapiens, SF-539, 48 h; for CC50: read-out: Log10 LC50 (converted)
SNB-19 = experiment: SRB growth screen, CNS cancer SNB-19; conditions: Homo sapiens, SNB-19, 48 h; for CC50: read-out: Log10 LC50 (converted); for IC (TGI): read-out: Log10 TGI
MALME-3M = experiment: SRB growth screen, melanoma MALME-3M; conditions: Homo sapiens, 48 h; for CC50: read-out: Log10 LC50 (converted); for IC (TGI): read-out: Log10 TGI
UACC-257 = experiment: SRB growth screen, melanoma UACC-257; conditions: Homo sapiens, UACC-257, 48 h; for CC50: read-out: Log10 LC50 (converted); for IC (TGI): read-out: Log10 TGI
RPMI-8226 = experiment: SRB growth screen, leukemia RPMI-8226; conditions: Homo sapiens, RPMI-8226, 48 h; for CC50: read-out: Log10 LC50 (converted)
786-0 = experiment: SRB growth screen, renal cancer 786-0; conditions: Homo sapiens, 786-0, 48 h; for CC50: read-out: Log10 LC50 (converted); for IC (TGI): read-out: Log10 TGI
SN12C = experiment: SRB growth screen, renal cancer SN12C; conditions: Homo sapiens, 48 h; for CC50: read-out: Log10 LC50 (converted); for IC (TGI): read-out: Log10 TGI
TK-10 = experiment: SRB growth screen, renal cancer TK-10; conditions: Homo sapiens, TK-10, 48 h; for CC50: read-out: Log10 LC50 (converted); for IC (TGI): read-out: Log10 TGI
UO-31 = experiment: SRB growth screen, renal cancer UO-31; conditions: Homo sapiens, UO-31, 48 h; for CC50: read-out: Log10 LC50 (converted); for IC (TGI): read-out: Log10 TGI
SW-620 = experiment: SRB growth screen, colon cancer SW-620; conditions: Homo sapiens, SW-620, 48 h; for CC50: read-out: Log10 LC50 (converted); for IC (TGI): read-out: Log10 TGI
MDA-N = experiment: SRB growth screen, breast cancer MDA-N; conditions: Homo sapiens, 48 h; for GI50: read-out: Log10 GI50 (converted)
HCT-116 = experiment: SRB growth screen, colon cancer HCT-116; conditions: Homo sapiens, HCT-116, 48 h; for GI50: read-out: Log10 GI50 (converted); for CC50: read-out: Log10 LC50 (converted)
RXF-393 = experiment: SRB growth screen, renal cancer RXF-393; conditions: Homo sapiens, RXF 393, 48 h; for CC50: read-out: Log10 LC50 (converted); for IC (TGI): read-out: Log10 TGI
HCC-2998 = experiment: SRB growth screen, colon cancer HCC-2998; conditions: Homo sapiens, HCC 2998, 48 h; for CC50: read-out: Log10 LC50 (converted); for IC (TGI): read-out: Log10 TGI
IGROV1 = experiment: SRB growth screen, ovarian cancer IGROV1; conditions: Homo sapiens, IGROV-1, 48 h; for CC50: read-out: Log10 LC50 (converted)
OVCAR-5 = experiment: SRB growth screen, ovarian cancer OVCAR-5; conditions: Homo sapiens, OVCAR-5, 48 h; for CC50: read-out: Log10 LC50 (converted); for IC (TGI): read-out: Log10 TGI
MCF7/ADR-RES = experiment: SRB growth screen, breast cancer MCF7/ADR-RES; conditions: Homo sapiens, 48 h; for CC50: read-out: Log10 LC50 (converted); for IC (TGI): read-out: Log10 TGI
HOP-62 = conditions: Homo sapiens, HOP-62, 48 h; for CC50: read-out: Log10 LC50 (converted)
[2] = read-out: Log10 GI50 (converted)
[3] = read-out: Log10 LC50 (converted)

Compound: CC(=O)O[C@H]1C(=O)[C@@]2(C)[C@H]([C@H](OC(=O)c3ccccc3)[C@]3(O)C[C@H](OC(=O)[C@H](O)[C@@H](NC(=O)C4(C)OC4C)c4ccccc4)C(C)=C1C3(C)C)[C@]1(OC(C)=O)CO[C@@H]1C[C@@H]2O (stereo partly drawn) [Ceph-epoxide, cephalomannine epoxide]
- CC50 [1]: 64.6 µM
- GI50 ([1]; mean over cell lines): 28.8 nM
- IC (TGI) ([1]; mean over cell lines): 5.75 µM
- GI50 (U251; [2]): < 0.01 µM
- CC50 (U251): > 100 µM
- GI50 (UACC-62; [2]): < 0.01 µM
- CC50 (UACC-62): > 100 µM
- IC (TGI) (UACC-62; read-out: Log10 TGI): > 100 µM
- GI50 (KM12; [2]): < 0.01 µM
- GI50 (SF-539; [2]): < 0.01 µM
- CC50 (SF-539): 0.0407 µM
- IC (TGI) (SF-539; read-out: Log10 TGI): < 0.01 µM
- GI50 (SNB-19; [2]): 0.0257 µM
- CC50 (SNB-19): > 100 µM
- IC (TGI) (SNB-19): > 100 µM
- CC50 (MALME-3M): > 100 µM
- IC (TGI) (MALME-3M): > 100 µM
- GI50 (UACC-257; [2]): 0.0209 µM
- CC50 (UACC-257): > 100 µM
- IC (TGI) (UACC-257): > 100 µM
- CC50 (RPMI-8226): > 100 µM
- CC50 (786-0): > 100 µM
- IC (TGI) (786-0): > 100 µM
- GI50 (SN12C; [2]): < 0.01 µM
- CC50 (SN12C): > 100 µM
- IC (TGI) (SN12C): > 100 µM
- GI50 (TK-10; [2]): 0.0646 µM
- CC50 (TK-10): > 100 µM
- IC (TGI) (TK-10): > 100 µM
- GI50 (UO-31; [2]): 2 µM
- CC50 (UO-31): > 100 µM
- IC (TGI) (UO-31): > 100 µM
- CC50 (SW-620): > 100 µM
- IC (TGI) (SW-620): > 100 µM
- GI50 (MDA-N): < 10 nM
- CC50 (MDA-N; [3]): < 0.01 µM
- IC (TGI) (MDA-N; read-out: Log10 TGI): < 0.01 µM
- GI50 (HCT-116): < 10 nM
- CC50 (HCT-116): > 100 µM
- GI50 (RXF-393; [2]): 0.214 µM
- CC50 (RXF-393): > 100 µM
- IC (TGI) (RXF-393): > 100 µM
- GI50 (HCC-2998; [2]): < 0.01 µM
- CC50 (HCC-2998): > 100 µM
- IC (TGI) (HCC-2998): 0.0457 µM
- GI50 (IGROV1; [2]): < 0.01 µM
- CC50 (IGROV1): > 100 µM
- GI50 (OVCAR-5; [2]): 0.0275 µM
- CC50 (OVCAR-5): > 100 µM
- IC (TGI) (OVCAR-5): 4.79 µM
- GI50 (MCF7/ADR-RES; [2]): 13.8 µM
- CC50 (MCF7/ADR-RES): > 100 µM
- IC (TGI) (MCF7/ADR-RES): 61.7 µM
- GI50 (HOP-62; [2]): 0.0245 µM
- CC50 (HOP-62): > 100 µM

Compound: CC(=O)O[C@H]1C(=O)[C@@]2(C)[C@H]([C@H](OC(=O)c3ccccc3)[C@]3(O)C[C@H](OC(=O)[C@H](O)[C@@H](NC(=O)c4ccccc4)c4ccccc4)C(C)=C1C3(C)C)[C@]1(OC(C)=O)CO[C@@H]1C[C@@H]2O [Paclitaxel, paclitaxel, reference compound]
- CC50 ([1]; mean over cell lines): 87.1 µM
- GI50 ([1]; mean over cell lines): 0.0708 nM
- IC (TGI) ([1]; mean over cell lines): 28.8 µM
- CC50 (U251): 70.8 µM
- IC (TGI) (U251; read-out: Log10 TGI): 47.9 µM
- CC50 (UACC-62): 64.6 µM
- CC50 (KM12; [3]): > 100 µM
- IC (TGI) (KM12; read-out: Log10 TGI): 43.7 µM
- CC50 (SF-539): > 100 µM
- CC50 (SNB-19): > 100 µM
- IC (TGI) (SNB-19): > 100 µM
- CC50 (MALME-3M): 77.6 µM
- IC (TGI) (MALME-3M): 34.7 µM
- CC50 (UACC-257): 93.3 µM
- IC (TGI) (UACC-257): 30.2 µM
- GI50 (RPMI-8226; [2]): < 0.1 pM
- CC50 (RPMI-8226): > 100 µM
- IC (TGI) (RPMI-8226; read-out: Log10 TGI): > 100 µM
- CC50 (786-0): > 100 µM
- IC (TGI) (786-0): > 100 µM
- CC50 (SN12C): > 100 µM
- IC (TGI) (SN12C): 91.2 µM
- CC50 (TK-10): > 100 µM
- IC (TGI) (TK-10): > 100 µM
- CC50 (UO-31): > 100 µM
- IC (TGI) (UO-31): 51.3 µM
- CC50 (SW-620): > 100 µM
- IC (TGI) (SW-620): > 100 µM
- GI50 (MDA-N): < 0.0001 nM
- GI50 (HCT-116): < 0.0001 nM
- CC50 (HCT-116): > 100 µM
- IC (TGI) (HCT-116; read-out: Log10 TGI): 15.1 µM
- CC50 (RXF-393): 35.5 µM
- IC (TGI) (RXF-393): 12.6 µM
- CC50 (HCC-2998): 55 µM
- IC (TGI) (HCC-2998): 17 µM
- CC50 (IGROV1): > 100 µM
- IC (TGI) (IGROV1; read-out: Log10 TGI): 64.6 µM
- CC50 (OVCAR-5): > 100 µM
- IC (TGI) (OVCAR-5): 12 µM
- CC50 (MCF7/ADR-RES): > 100 µM
- IC (TGI) (MCF7/ADR-RES): > 100 µM
- CC50 (HOP-62): 79.4 µM
- IC (TGI) (HOP-62; read-out: Log10 TGI): 15.8 µM
